Measured values: publication PMC12210252 (2025)

Experiments:
[1] = tested on: AptT4 (SH-5′-AptT4) (DNA, aptamer) CGCCGTTGGTGTTCGGTCAGGCTTCCGTGGCAACGGGGCAAAATGGTAATCGCGGGGAACC; assay: SnS2 field-effect transistor, selectivity test; conditions: 137 mM NaCl, 2.7 mM KCl, 0.5 mM MgCl2; 1× PBS, pH 7.4; tested at 10 nM against 1 pM T4; low response
[2] = tested on: AptT4 (SH-5′-AptT4) (DNA, aptamer) CGCCGTTGGTGTTCGGTCAGGCTTCCGTGGCAACGGGGCAAAATGGTAATCGCGGGGAACC; assay: SnS2 field-effect transistor, Langmuir isotherm fit; conditions: 137 mM NaCl, 2.7 mM KCl, 0.5 mM MgCl2; 1× PBS (10 mM Na2HPO4, 2 mM KH2PO4), pH 7.4; aptamer immobilised with PEG

| binding [1] | K d [2] [nM] | SMILES |
| --- | --- | --- |
| no | – | CC(C)(c1ccc(O)cc1)c1ccc(O)cc1 |
| – | 0.0144 ± 0.0008 | N[C@@H](Cc1cc(I)c(Oc2cc(I)c(O)c(I)c2)c(I)c1)C(=O)O |
| no | – | N[C@@H](Cc1cc(I)c(Oc2ccc(O)c(I)c2)c(I)c1)C(=O)O |
